Reference: the NIST ThermoML archive (doi:10.1021/je700261b)

Experiment: xn = mol fraction of the nth substance listed
Settings: Liquid

CCCCO [butan-1-ol] + O=C=O
Settings	mass density [kg/m3]
333.08 K, 16957 kPa, x2 = 0.1842	803.2
333.08 K, 18103 kPa, x2 = 0.1842	804.27
333.08 K, 19053 kPa, x2 = 0.1842	805.14
333.08 K, 20044 kPa, x2 = 0.1842	806.03
333.08 K, 21090 kPa, x2 = 0.1842	807.01
333.08 K, 21974 kPa, x2 = 0.1842	807.82
333.08 K, 22960 kPa, x2 = 0.1842	808.7
333.08 K, 24014 kPa, x2 = 0.1842	809.64
333.08 K, 25045 kPa, x2 = 0.1842	810.58
342.85 K, 1014 kPa, x2 = 0.0251	772.92
342.85 K, 2013 kPa, x2 = 0.0251	773.93
342.85 K, 2982 kPa, x2 = 0.0251	774.9
342.85 K, 4039 kPa, x2 = 0.0251	775.94
342.85 K, 5057 kPa, x2 = 0.0251	776.91
342.85 K, 5993 kPa, x2 = 0.0251	777.79
342.85 K, 7067 kPa, x2 = 0.0251	778.78
342.85 K, 8025 kPa, x2 = 0.0251	779.69
342.85 K, 9013 kPa, x2 = 0.0251	780.6
342.85 K, 10012 kPa, x2 = 0.0251	781.51
342.85 K, 11010 kPa, x2 = 0.0251	782.43
342.85 K, 11969 kPa, x2 = 0.0251	783.27
342.85 K, 13080 kPa, x2 = 0.0251	784.23
342.85 K, 13925 kPa, x2 = 0.0251	784.95
342.85 K, 15055 kPa, x2 = 0.0251	785.93
342.85 K, 16002 kPa, x2 = 0.0251	786.72
342.85 K, 17016 kPa, x2 = 0.0251	787.57
342.85 K, 18007 kPa, x2 = 0.0251	788.39
342.85 K, 19019 kPa, x2 = 0.0251	789.22
342.85 K, 20027 kPa, x2 = 0.0251	790.06
342.85 K, 20996 kPa, x2 = 0.0251	790.82
342.85 K, 22019 kPa, x2 = 0.0251	791.65
342.85 K, 23034 kPa, x2 = 0.0251	792.46
342.85 K, 24052 kPa, x2 = 0.0251	793.28
342.85 K, 25090 kPa, x2 = 0.0251	794.07
342.87 K, 15510 kPa, x2 = 0.9698	598.32
342.87 K, 16022 kPa, x2 = 0.9698	613.97
342.87 K, 17033 kPa, x2 = 0.9698	640.58
342.87 K, 17988 kPa, x2 = 0.9698	661.78
342.87 K, 19001 kPa, x2 = 0.9698	681.25
342.87 K, 20036 kPa, x2 = 0.9698	698.56
342.87 K, 21044 kPa, x2 = 0.9698	713.53
342.87 K, 22014 kPa, x2 = 0.9698	726.53
342.87 K, 23003 kPa, x2 = 0.9698	738.6
342.87 K, 24019 kPa, x2 = 0.9698	749.89
342.87 K, 24944 kPa, x2 = 0.9698	759.52
342.88 K, 1975 kPa, x2 = 0.0857	776.2
342.88 K, 2955 kPa, x2 = 0.0857	777.28
342.88 K, 4033 kPa, x2 = 0.0857	778.42
342.88 K, 5015 kPa, x2 = 0.0857	779.45
342.88 K, 5957 kPa, x2 = 0.0857	780.4
342.88 K, 7027 kPa, x2 = 0.0857	781.49
342.88 K, 7999 kPa, x2 = 0.0857	782.5
342.88 K, 9007 kPa, x2 = 0.0857	783.51
342.88 K, 10003 kPa, x2 = 0.0857	784.47
342.88 K, 11007 kPa, x2 = 0.0857	785.43
342.88 K, 11951 kPa, x2 = 0.0857	786.34
342.88 K, 13010 kPa, x2 = 0.0857	787.34
342.88 K, 14012 kPa, x2 = 0.0857	788.24
342.88 K, 15065 kPa, x2 = 0.0857	789.2
342.88 K, 15994 kPa, x2 = 0.0857	790.07
342.88 K, 17007 kPa, x2 = 0.0857	790.98
342.88 K, 17999 kPa, x2 = 0.0857	791.83
342.88 K, 18990 kPa, x2 = 0.0857	792.72
342.88 K, 20029 kPa, x2 = 0.0857	793.58
342.88 K, 20993 kPa, x2 = 0.0857	794.43
342.88 K, 22004 kPa, x2 = 0.0857	795.26
342.88 K, 23039 kPa, x2 = 0.0857	796.17
342.88 K, 24019 kPa, x2 = 0.0857	796.97
342.88 K, 25064 kPa, x2 = 0.0857	797.88
342.92 K, 12062 kPa, x2 = 0.4972	795.68
342.92 K, 13090 kPa, x2 = 0.4972	797.59
342.92 K, 14017 kPa, x2 = 0.4972	799.27
342.92 K, 15047 kPa, x2 = 0.4972	801.1
342.92 K, 16026 kPa, x2 = 0.4972	802.79
342.92 K, 17041 kPa, x2 = 0.4972	804.51
342.92 K, 18053 kPa, x2 = 0.4972	806.18
342.92 K, 19028 kPa, x2 = 0.4972	807.77
342.92 K, 20046 kPa, x2 = 0.4972	809.4
342.92 K, 21062 kPa, x2 = 0.4972	810.98
342.92 K, 22043 kPa, x2 = 0.4972	812.48
342.92 K, 22996 kPa, x2 = 0.4972	813.92
342.92 K, 24003 kPa, x2 = 0.4972	815.43
342.92 K, 25073 kPa, x2 = 0.4972	816.99
342.94 K, 13074 kPa, x2 = 0.5965	795.03
342.94 K, 14051 kPa, x2 = 0.5965	797.49
342.94 K, 15068 kPa, x2 = 0.5965	799.99
342.94 K, 15189 kPa, x2 = 0.8663	716.88
342.94 K, 16052 kPa, x2 = 0.8663	728.37
342.94 K, 16064 kPa, x2 = 0.5965	802.35
342.94 K, 17059 kPa, x2 = 0.8663	740.13
342.94 K, 17076 kPa, x2 = 0.5965	804.68
342.94 K, 18027 kPa, x2 = 0.8663	749.98
342.94 K, 18056 kPa, x2 = 0.5965	806.85
342.94 K, 19037 kPa, x2 = 0.5965	808.99
342.94 K, 19050 kPa, x2 = 0.8663	759.3
342.94 K, 20036 kPa, x2 = 0.8663	767.54
342.94 K, 20067 kPa, x2 = 0.5965	811.18
342.94 K, 21031 kPa, x2 = 0.5965	813.15
342.94 K, 21038 kPa, x2 = 0.8663	775.36
342.94 K, 22050 kPa, x2 = 0.5965	815.2
342.94 K, 22085 kPa, x2 = 0.8663	782.79
342.94 K, 23030 kPa, x2 = 0.5965	817.14
342.94 K, 23032 kPa, x2 = 0.8663	789.07
342.94 K, 24031 kPa, x2 = 0.5965	819.08
342.94 K, 24045 kPa, x2 = 0.8663	795.41
342.94 K, 25028 kPa, x2 = 0.5965	820.94
342.94 K, 25042 kPa, x2 = 0.8663	801.31
343 K, 6024 kPa, x2 = 0.1842	782.23
343 K, 7050 kPa, x2 = 0.1842	783.43
343 K, 8037 kPa, x2 = 0.1842	784.59
343 K, 9052 kPa, x2 = 0.1842	785.73
343 K, 10057 kPa, x2 = 0.1842	786.87
343 K, 11053 kPa, x2 = 0.1842	787.96
343 K, 12027 kPa, x2 = 0.1842	789.03
343 K, 13076 kPa, x2 = 0.1842	790.12
343 K, 14026 kPa, x2 = 0.1842	791.16
343 K, 15081 kPa, x2 = 0.1842	792.24
343 K, 16028 kPa, x2 = 0.1842	793.21
343 K, 17031 kPa, x2 = 0.1842	794.24
343 K, 18020 kPa, x2 = 0.1842	795.22
343 K, 19009 kPa, x2 = 0.1842	796.2
343 K, 20030 kPa, x2 = 0.1842	797.2
343 K, 21066 kPa, x2 = 0.1842	798.2
343 K, 21978 kPa, x2 = 0.1842	799.07
343 K, 23062 kPa, x2 = 0.1842	800.09
343 K, 24031 kPa, x2 = 0.1842	801.02
343 K, 25044 kPa, x2 = 0.1842	801.97
352.77 K, 1022 kPa, x2 = 0.0251	763.98
352.77 K, 2029 kPa, x2 = 0.0251	765.11
352.77 K, 3006 kPa, x2 = 0.0251	766.15
352.77 K, 4015 kPa, x2 = 0.0251	767.17
352.77 K, 5041 kPa, x2 = 0.0251	768.25
352.77 K, 5988 kPa, x2 = 0.0251	769.24
352.77 K, 7026 kPa, x2 = 0.0251	770.25
352.77 K, 8000 kPa, x2 = 0.0251	771.2
352.77 K, 9059 kPa, x2 = 0.0251	772.24
352.77 K, 10017 kPa, x2 = 0.0251	773.14
352.77 K, 11016 kPa, x2 = 0.0251	774.17
352.77 K, 12004 kPa, x2 = 0.0251	775.04
352.77 K, 13003 kPa, x2 = 0.0251	775.95
352.77 K, 14039 kPa, x2 = 0.0251	776.91
352.77 K, 14988 kPa, x2 = 0.0251	777.75
352.77 K, 16084 kPa, x2 = 0.0251	778.74
352.77 K, 17004 kPa, x2 = 0.0251	779.54
352.77 K, 18003 kPa, x2 = 0.0251	780.41
352.77 K, 19004 kPa, x2 = 0.0251	781.28
352.77 K, 20007 kPa, x2 = 0.0251	782.15
352.77 K, 21029 kPa, x2 = 0.0251	783.01
352.77 K, 22044 kPa, x2 = 0.0251	783.86
352.77 K, 22995 kPa, x2 = 0.0251	784.65
352.77 K, 24056 kPa, x2 = 0.0251	785.52
352.77 K, 25098 kPa, x2 = 0.0251	786.41
352.79 K, 18068 kPa, x2 = 0.9698	596.97
352.79 K, 18999 kPa, x2 = 0.9698	619.03
352.79 K, 20007 kPa, x2 = 0.9698	639.88
352.79 K, 21053 kPa, x2 = 0.9698	659.01
352.79 K, 22011 kPa, x2 = 0.9698	674.59
352.79 K, 23058 kPa, x2 = 0.9698	690
352.79 K, 24106 kPa, x2 = 0.9698	703.93
352.79 K, 25050 kPa, x2 = 0.9698	715.49
352.82 K, 6041 kPa, x2 = 0.1842	772.14
352.82 K, 7041 kPa, x2 = 0.1842	773.4
352.82 K, 8024 kPa, x2 = 0.1842	774.6
352.82 K, 9042 kPa, x2 = 0.1842	775.87
352.82 K, 10044 kPa, x2 = 0.1842	777.07
352.82 K, 11026 kPa, x2 = 0.1842	778.23
352.82 K, 12073 kPa, x2 = 0.1842	779.44
